According to US11464770B2, “Anticancer pharmaceutical composition” (NATIONAL CANCER CENTER, priority 2016, dated 2022):
Where two headings read alike, the source gives them in different places.

Legend:
[1] = test system: pancreatic cancer cell lines (e.g. MIA PaCa-2); test: Cell based assay, cell viability (CellTiter-Glo), pancreatic cancer cell lines; details: Homo sapiens
Protocol: (§1) Commercially available bladder cancer, prostate cancer, lung cancer, breast cancer, blood cancer, pancreatic cancer, colorectal cancer, brain cancer, neuroblastoma, melanoma, liver cancer, cervical carcinoma, ovarian cancer, renal cancer, and papilloma cell lines were each treated with trypsin-EDTA and cultured, followed by being seeded in each well of a 96 well plate. After 24 hours of treatment at constant temperature, the respective cells were treated with the candidate compound so that a final concentration became 0 to 2 μM. The treated cells were additionally cultured for 72 hours, and cell viability was measured by using an ATP detection method (CellTiter-Glo® Luminescent Cell Viability Assay, Promega).

[2] = test system: cervical carcinoma cell lines; test: Cell based assay, cell viability (CellTiter-Glo), cervical carcinoma cell lines; details: Homo sapiens; HeLa cells
Protocol: as §1, with “After 24 hours of treatment at constant temperature, the respective cells were treated with the candidate compound so that a final concentration became 0 to 2 μM.” left out

[3] = test system: blood cancer cell lines (e.g. HL-60, Jurkat, Raji, Ramos, Daudi, MOLT-4); test: Cell based assay, cell viability (CellTiter-Glo), blood cancer cell lines; details: Homo sapiens
Protocol: as §1

[4] = pancreatic cancer cell line AsPC-1, 72 hours, read-out: IC50, AsPC-1
[5] = pancreatic cancer cell line BxPC-3, 72 hours, read-out: IC50, BxPC-3
[6] = pancreatic cancer cell line CFPAC-1, 72 hours, read-out: IC50, CFPAC-1
[7] = pancreatic cancer cell line Capan-1, 72 hours, read-out: IC50, Capan-1
[8] = pancreatic cancer cell line Capan-2, 72 hours, read-out: IC50, Capan-2
[9] = pancreatic cancer cell line MIA PaCa-2, 72 hours, read-out: IC50, MIA PaCa-2
[10] = pancreatic cancer cell line PANC-1, 72 hours, read-out: IC50, PANC-1
[11] = MV4-11, blood cancer cell line MV-4-11, 72 hours, read-out: IC50, MV-4-11
[12] = blood cancer cell line Daudi, 72 hours, read-out: IC50, Daudi
[13] = blood cancer cell line HL-60, 72 hours, read-out: IC50, HL-60
[14] = blood cancer cell line Jurkat, 72 hours, read-out: IC50, Jurkat
[15] = blood cancer cell line MOLT-4, 72 hours, read-out: IC50, MOLT-4
[16] = blood cancer cell line Raji, 72 hours, read-out: IC50, Raji
[17] = blood cancer cell line Ramos (RA 1), 72 hours, read-out: IC50, Ramos (RA 1)
[18] = blood cancer cell line U-937, 72 hours, read-out: IC50, U-937

Measured: IC50

CC(=O)c1c([S+](C)[O-])[nH]c2c(Br)ccc(Cl)c2c1=O (stereo not drawn) [Compound 1, 3-acetyl-8-bromo-5-chloro-2-(methylsulfinyl)quinolin-4(1H)-one]
1720 nM: [3]; [13]
> 2000 nM: [1]; [4] | [1]; [5] | [1]; [7] | [1]; [8] | [1]; [10] | [3]; [12] | [3]; [14] | [3]; [16] | [3]; [17] | [3]; [18]
1590 nM: [1]; [9]
1850 nM: [3]; [15]
1390 nM: [3]; [11]
> 10000 nM: [1]; [6] | [2]

CSc1[nH]c2c(Br)ccc(Cl)c2c(=O)c1C(C)=O [Compound 2, 3-acetyl-8-bromo-5-chloro-2-(methylthio)quinolin-4(1H)-one]
> 2000 nM: [1]; [4] | [1]; [5] | [1]; [7] | [1]; [8] | [1]; [9] | [1]; [10] | [3]; [11] | [3]; [12] | [3]; [13] | [3]; [14] | [3]; [15] | [3]; [16] | [3]; [17] | [3]; [18]
> 10000 nM: [1]; [6] | [2]

CC(=O)c1c(SCc2ccccc2)[nH]c2c(Br)ccc(Cl)c2c1=O [Compound 3, 3-acetyl-2-(benzylthio)-8-bromo-5-chloroquinolin-4(1H)-one]
> 2000 nM: [1]; [4] | [1]; [5] | [1]; [7] | [1]; [8] | [1]; [9] | [1]; [10] | [3]; [11] | [3]; [12] | [3]; [13] | [3]; [14] | [3]; [15] | [3]; [16] | [3]; [17] | [3]; [18]
> 10000 nM: [1]; [6] | [2]

CC(=O)c1c([S+]([O-])Cc2ccccc2)nc2c(Br)ccc(Cl)c2c1O (stereo not drawn) [Compound 4]
> 10000 nM: [1]; [6] | [2]
1370 nM: [3]; [15]
1240 nM: [3]; [18]
1070 nM: [3]; [14]
1980 nM: [3]; [13]
1150 nM: [3]; [16]
1610 nM: [3]; [11]
1340 nM: [1]; [9]
1760 nM: [3]; [17]
> 2000 nM: [1]; [4] | [1]; [5] | [1]; [7] | [1]; [8] | [1]; [10] | [3]; [12]

CSc1c(C(C)=O)c(=O)c2c(Cl)ccc(Br)c2n1C [Compound 5, 3-acetyl-8-bromo-5-chloro-1-methyl-2-(methylthio)quinolin-4(1H)-one]
> 2000 nM: [1]; [4] | [1]; [5] | [1]; [7] | [1]; [8] | [1]; [9] | [1]; [10] | [3]; [11] | [3]; [12] | [3]; [13] | [3]; [14] | [3]; [15] | [3]; [16] | [3]; [17] | [3]; [18]
> 10000 nM: [1]; [6] | [2]

CC(=O)c1c([S+](C)[O-])[nH]c2c(Cl)ccc(Cl)c2c1=O (stereo not drawn) [Compound 6, 3-acetyl-5,8-dichloro-2-(methylsulfinyl)quinolin-4(1H)-one]
1260 nM: [3]; [11]
> 10000 nM: [1]; [6] | [2]
1650 nM: [3]; [13]
> 2000 nM: [1]; [4] | [1]; [5] | [1]; [7] | [1]; [8] | [1]; [10] | [3]; [12] | [3]; [14] | [3]; [16] | [3]; [17] | [3]; [18]
1690 nM: [3]; [15]
1350 nM: [1]; [9]

CSc1c(C(C)=O)c(=O)c2cc(F)ccc2n1C [Compound 7, 3-acetyl-6-fluoro-1-methyl-2-(methylthio)quinolin-4(1H)-one]
> 2000 nM: [1]; [4] | [1]; [5] | [1]; [7] | [1]; [8] | [1]; [9] | [1]; [10] | [3]; [11] | [3]; [12] | [3]; [13] | [3]; [14] | [3]; [15] | [3]; [16] | [3]; [17] | [3]; [18]
> 10000 nM: [1]; [6] | [2]

CSc1[nH]c2ccc(F)cc2c(=O)c1C(C)=O [Compound 8, 1-(6-fluoro-4-hydroxy-2-(methylthio)quinolin-3-yl)ethan-1-one]
> 2000 nM: [1]; [4] | [1]; [5] | [1]; [7] | [1]; [8] | [1]; [9] | [1]; [10] | [3]; [11] | [3]; [12] | [3]; [13] | [3]; [14] | [3]; [15] | [3]; [16] | [3]; [17] | [3]; [18]
> 10000 nM: [1]; [6] | [2]

CC(=O)c1c([S+](C)[O-])n(C(=O)c2ccc(Br)cc2)c2c(Br)ccc(Cl)c2c1=O (stereo not drawn) [Compound 9, 3-acetyl-8-bromo-1-(4-bromobenzoyl)-5-chloro-2-(methylsulfinyl)quinolin-4(1H)-one]
1050 nM: [3]; [14]
1200 nM: [3]; [13]
> 10000 nM: [1]; [6] | [2]
> 2000 nM: [1]; [4] | [1]; [5] | [1]; [7] | [1]; [8] | [1]; [10]
1990 nM: [3]; [12]
1550 nM: [3]; [17]
1250 nM: [3]; [15]
1030 nM: [1]; [9]
1060 nM: [3]; [18]
1140 nM: [3]; [16]
1090 nM: [3]; [11]
